# Laboratory results as given in patent publication US20240224994A1, “INSECT REPELLANT FORMULATION AND METHOD OF USING SAME” (United Industries Corporation, priority 2021, published 2024).
# Test system: Deer Ticks, Ixodes ricinus
# Assay: Efficacy of nootkatone formulations against ticks on human forearm skin (complete protection time)
# Assay type: in vivo
# Conditions: FIG. 1; human skin test
# Description: The objective of the study was estimate the complete protection time (CPT) of the various repellent formulations against ticks. Complete protection time (CPT) was measured as the length of time from initial application to the First Confirmed Crossing (FCC).
# A number of 32 volunteers were selected based on signing of informed consent form and passing the sensitivity test, 24-48 hours before the initiation of the experiment. The volunteers were briefed about the experiment in detail prior to signing the consent form. Test volunteers were instructed to avoid alcohol, tobacco, caffeine, and fragrance products (e.g., perfume, cologne, hair spray, lotion, etc.) at least for 12 hours before, and during the test.
# The test substance/positive control (liquid) was applied at 1 ml/600 cm^2±10% deviation. […] The treatment area was calculated by measuring the circumference (cm) of the wrist (B), the circumference (cm) at the elbow-cubital fossa (C) when the arm is extended, and the distance (cm) from the elbow to the wrist (D) The surface area (in cm^2) of skin was calculated by: […]
# Fresh ticks were exposed to the treated area one at a time, at regular intervals of 30 minutes until the first crossing or observation were recorded as “not repelled.” The cycle continues until efficacy failure or the end of the study, whichever occurs first. […]
structure (smiles),measurement,value
OCc1ccccc1 [benzyl alcohol],effect of ingredient on CPT of the compositions,effective in prolonging the CPT
